PubChem BioAssay (NCI)
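All cell lines were grown in 96-well plates and treated with compound for 48 hours. TGI marks complete inhibition of growth.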

Key:
Test in all cases: inhibition of tumour cell growth, NCI panel, 48 h
COLO 205 colon = test system: COLO 205 colon
HL-60(TB) leukemia = test system: HL-60(TB) leukemia
MALME-3M melanoma = test system: MALME-3M melanoma
SNB-75 CNS = test system: SNB-75 CNS
EKVX NSCLC = test system: EKVX NSCLC
SK-OV-3 ovarian = test system: SK-OV-3 ovarian
RPMI-8226 leukemia = test system: RPMI-8226 leukemia
786-0 renal = test system: 786-0 renal
MOLT-4 leukemia = test system: MOLT-4 leukemia
A498 renal = test system: A498 renal
CAKI-1 renal = test system: CAKI-1 renal
BT-549 breast = test system: BT-549 breast
SK-MEL-5 melanoma = test system: SK-MEL-5 melanoma
IGROV1 ovarian = test system: IGROV1 ovarian
MDA-MB-231 breast = test system: MDA-MB-231 breast
UO-31 renal = test system: UO-31 renal
HCT-15 colon = test system: HCT-15 colon
HOP-62 NSCLC = test system: HOP-62 NSCLC
SNB-19 CNS = test system: SNB-19 CNS
PC-3 prostate = test system: PC-3 prostate
HS 578T breast = test system: HS 578T breast
SK-MEL-28 melanoma = test system: SK-MEL-28 melanoma
K-562 leukemia = test system: K-562 leukemia
M14 melanoma = test system: M14 melanoma
T-47D breast = test system: T-47D breast
TK-10 renal = test system: TK-10 renal
SK-MEL-2 melanoma = test system: SK-MEL-2 melanoma
OVCAR-4 ovarian = test system: OVCAR-4 ovarian
OVCAR-5 ovarian = test system: OVCAR-5 ovarian
RXF 393 renal = test system: RXF 393 renal
MDA-N = test system: MDA-N
NCI/ADR-RES ovarian = test system: NCI/ADR-RES ovarian
NCI-H522 lung = test system: NCI-H522 lung
A549 NSCLC = test system: A549 NSCLC
UACC-62 melanoma = test system: UACC-62 melanoma
NCI-H23 lung = test system: NCI-H23 lung
UACC-257 melanoma = test system: UACC-257 melanoma
KM12 colon = test system: KM12 colon
ACHN renal = test system: ACHN renal
HT29 colon = test system: HT29 colon
U251 CNS = test system: U251 CNS
SF-539 CNS = test system: SF-539 CNS
MDA-MB-435 = test system: MDA-MB-435
SN12C renal = test system: SN12C renal
NCI-H460 lung = test system: NCI-H460 lung
SF-268 CNS = test system: SF-268 CNS
OVCAR-8 ovarian = test system: OVCAR-8 ovarian
HOP-92 NSCLC = test system: HOP-92 NSCLC
SW-620 colon = test system: SW-620 colon
CCRF-CEM leukemia = test system: CCRF-CEM leukemia
HCT-116 colon = test system: HCT-116 colon
DU-145 prostate = test system: DU-145 prostate
HCC-2998 colon = test system: HCC-2998 colon
LOX IMVI melanoma = test system: LOX IMVI melanoma
MCF7 breast = test system: MCF7 breast
NCI-H226 lung = test system: NCI-H226 lung
SF-295 CNS = test system: SF-295 CNS
OVCAR-3 ovarian = test system: OVCAR-3 ovarian
SR leukemia = test system: SR leukemia

COC1C=COC2(C)Oc3c(C)c(O)c4c(c3C2=O)/C(=N/C2CCC(O)OC2C)C=C(NC(=O)/C(C)=C\C(=O)C2CC2C(O)C(C)C(O)C(C)C(OC(C)=O)C1C)C4=O (centres undefined)
TGI (COLO 205 colon): 3.38 µM
TGI (HL-60(TB) leukemia): 6.32 µM
TGI (MALME-3M melanoma): 3.36 µM
TGI (SNB-75 CNS): 12.4 µM
TGI (EKVX NSCLC): 8.75 µM
TGI (SK-OV-3 ovarian): 20.1 µM
TGI (RPMI-8226 leukemia): 5.74 µM
TGI (786-0 renal): 3.13 µM
TGI (MOLT-4 leukemia): 8.05 µM
TGI (A498 renal): 8.36 µM
TGI (CAKI-1 renal): 9.92 µM
TGI (BT-549 breast): 6.28 µM
TGI (SK-MEL-5 melanoma): 4.97 µM
TGI (IGROV1 ovarian): 6.13 µM
TGI (MDA-MB-231 breast): 5.69 µM
TGI (UO-31 renal): 5.59 µM
TGI (HCT-15 colon): 9.79 µM
TGI (HOP-62 NSCLC): 8.75 µM
TGI (SNB-19 CNS): 11.6 µM
TGI (PC-3 prostate): 6.56 µM
TGI (HS 578T breast): 8.38 µM
TGI (SK-MEL-28 melanoma): 4.32 µM
TGI (K-562 leukemia): 6.3 µM
TGI (M14 melanoma): 4.47 µM
TGI (T-47D breast): 8.61 µM
TGI (TK-10 renal): 7.25 µM
TGI (SK-MEL-2 melanoma): 12.4 µM
TGI (OVCAR-4 ovarian): 10.6 µM
TGI (OVCAR-5 ovarian): 8.45 µM
TGI (RXF 393 renal): 3.45 µM
TGI (MDA-N): 3.83 µM
TGI (NCI/ADR-RES ovarian): 50.4 µM
TGI (NCI-H522 lung): 2.79 µM
TGI (A549 NSCLC): 11.4 µM
TGI (UACC-62 melanoma): 4.3 µM
TGI (NCI-H23 lung): 3.62 µM
TGI (UACC-257 melanoma): 5.98 µM
TGI (KM12 colon): 9.48 µM
TGI (ACHN renal): 6.68 µM
TGI (HT29 colon): 2.71 µM
TGI (U251 CNS): 8.3 µM
TGI (SF-539 CNS): 5.34 µM
TGI (MDA-MB-435): 3.64 µM
TGI (SN12C renal): 3.24 µM
TGI (NCI-H460 lung): 11.5 µM
TGI (SF-268 CNS): 10.5 µM
TGI (OVCAR-8 ovarian): 3.89 µM
TGI (HOP-92 NSCLC): 5.29 µM
TGI (SW-620 colon): 4.91 µM
TGI (CCRF-CEM leukemia): 10.9 µM
TGI (HCT-116 colon): 3.56 µM
TGI (DU-145 prostate): 7.13 µM
TGI (HCC-2998 colon): 6.88 µM
TGI (LOX IMVI melanoma): 3.24 µM
TGI (MCF7 breast): 4.74 µM
TGI (NCI-H226 lung): 8.06 µM
TGI (SF-295 CNS): 13.3 µM
TGI (OVCAR-3 ovarian): 5.21 µM
TGI (SR leukemia): 5.06 µM
